# Reference: patent US12577257B2, “Heterocyclic compounds” (Hoffmann-La Roche Inc., priority 2018, dated 2026)
# Molecular target: T1, MAGL (Homo sapiens, UniProt Q99685)
# T1 sequence (Q99685 1-303): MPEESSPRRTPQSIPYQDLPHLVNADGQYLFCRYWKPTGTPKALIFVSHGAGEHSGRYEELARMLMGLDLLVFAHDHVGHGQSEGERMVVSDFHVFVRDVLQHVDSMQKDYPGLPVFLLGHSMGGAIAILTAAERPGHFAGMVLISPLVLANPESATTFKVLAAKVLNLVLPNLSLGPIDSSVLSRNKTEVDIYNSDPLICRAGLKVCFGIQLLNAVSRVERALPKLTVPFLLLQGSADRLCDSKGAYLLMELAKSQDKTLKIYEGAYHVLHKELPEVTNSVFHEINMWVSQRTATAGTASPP
# Experiment: 2-AG assay: MAGL hydrolysis of 2-arachidonoylglycerol to arachidonic acid, followed by mass spectrometry
# Assay type: biochemical
# Conditions: footnote [a]: measured in 2-AG assay
# Method: Alternatively, compounds were profiled for MAGL inhibitory activity by determining the enzymatic activity by following the hydrolysis of the natural substrate 2-arachidonoylglycerol resulting in arachidonic acid, which can be followed by mass spectrometry. This assay is hereinafter abbreviated “2-AG assay”.
# The 2-AG assay was carried out in 384 well assay plates (PP, Greiner Cat #784201) in a total volume of 20 μL. Compound dilutions were made in 100% DMSO (VWR Chemicals 23500.297) in a polypropylene plate in 3-fold dilution steps to give a final concentration range in the assay from 12.5 μM to […]. 0.25 μL compound dilutions (100% DMSO) were added to 9 μL MAGL in assay buffer (50 mM TRIS (GIBCO, 15567-027), 1 mM EDTA (Fluka, 03690-100 ml), 0.01% (v/v) Tween. After shaking, the plate was incubated for 15 min at RT. To start the reaction, 10 μL 2-arachidonoylglycerol in assay buffer was added. The final concentrations in the assay was […] and 8 μM 2-arachidonoylglycerol. After shaking and 30 min incubation at RT, the reaction was quenched by the addition of 40 μL of acetonitrile containing 4 μM of d8-arachidonic acid. The amount of arachidonic acid was traced by an online SPE system (Agilent Rapidfire) coupled to a triple quadrupole mass spectrometer (Agilent 6460). A C18 SPE cartridge (G9205A) was used in an acetonitrile/water liquid setup. The mass spectrometer was operated in negative electrospray mode following the mass transitions 303.1→259.1 for arachidonic acid and 311.1→267.0 for d8-arachidonic acid. The activity of the compounds was calculated based on the ratio of intensities [arachidonic acid/d8-arachidonic acid].
row,SMILES,IC50
1,"O=C1CO[C@H]2CCN(C(=O)N3CCC4(CC3)C[C@@H](NS(=O)(=O)c3ccccc3)CO4)C[C@H]2N1 (mixture of isomers) [Example 18, rac-(4aR,8aS)—N—((R)-8-(3-oxooctahydro-2H-pyrido[4,3-b][1,4]oxazine-6-carbonyl)-1-oxa-8-azaspiro[4.5]decan-3-yl)benzenesulfonamide]",316 nM
2,"O=C1CO[C@H]2CCN(C(=O)N3CCC4(CC3)C[C@H](NS(=O)(=O)c3ccccc3)CO4)C[C@H]2N1 (mixture of isomers) [Example 19, rac-(4aR,8aS)-N-((S)-8-(3-oxooctahydro-2H-pyrido[4,3-b][1,4]oxazine-6-carbonyl)-1-oxa-8-azaspiro[4.5]decan-3-yl)benzenesulfonamide]",821 nM
3,"O=C1CO[C@H]2CCN(C(=O)N3CCC4(CC3)CC(NCc3ccc(F)cc3Cl)CO4)C[C@H]2N1 (mixture of isomers) [Example 38, rac-(4aR,8aS)-6-(3-((2-Chloro-4-fluorobenzyl)amino)-1-oxa-8-azaspiro[4.5]decane-8-carbonyl)hexahydro-2H-pyrido[4,3-b][1,4]oxazin-3(4H)-one]",416 nM
4,"CN(Cc1ccc(F)cc1Cl)C1COC2(CCN(C(=O)N3CC[C@@H]4OCC(=O)N[C@@H]4C3)CC2)C1 (single isomer, unassigned) [Example 33]",129 nM
5,"CN(Cc1ccc(F)cc1Cl)C1COC2(CCN(C(=O)N3CC[C@@H]4OCC(=O)N[C@@H]4C3)CC2)C1 (single isomer, unassigned) [Example 34]",133 nM
6,"O=C1CO[C@H]2CCN(C(=O)N3CCC4(CC3)CC(NCc3ccc(F)cc3Cl)CO4)C[C@H]2N1 (single isomer, unassigned) [Example 35]",182 nM
7,"O=C1CO[C@H]2CCN(C(=O)N3CCC4(CC3)CC(NS(=O)(=O)c3ccc(C(F)(F)F)cc3)CO4)C[C@H]2N1 (stereo in doubt) [Example 29, N-((S)-8-((4aR,8aS)-3-Oxooctahydro-2H-pyrido[4,3-b][1,4]oxazine-6-carbonyl)-1-oxa-8-azaspiro[4.5]decan-3-yl)-4-(trifluoromethyl)benzenesulfonamide]",47.5 nM
8,"O=C1CO[C@H]2CCN(C(=O)N3CCC4(CC3)CC(NS(=O)(=O)c3ccc(F)cc3Cl)CO4)C[C@H]2N1 (stereo in doubt) [Example 31, 2-Chloro-4-fluoro-N-((S)-8-((4aR,8aS)-3-oxooctahydro-2H-pyrido[4,3-b][1,4]oxazine-6-carbonyl)-1-oxa-8-azaspiro[4.5]decan-3-yl)benzenesulfonamide]",51.3 nM
9,"O=C1CO[C@H]2CCN(C(=O)N3CCC4(CC3)CC(NS(=O)(=O)c3cccc(C(F)(F)F)c3)CO4)C[C@H]2N1 (stereo in doubt) [Example 32, N-((S)-8-((4aR,8aS)-3-Oxooctahydro-2H-pyrido[4,3-b][1,4]oxazine-6-carbonyl)-1-oxa-8-azaspiro[4.5]decan-3-yl)-3-(trifluoromethyl)benzenesulfonamide]",124 nM

# Other lines, results leading:
row,IC50,SMILES
1,279 nM,"O=C1CO[C@H]2CCN(C(=O)N3CCC4(CC3)CC(NCc3ccc(F)cc3Cl)CO4)C[C@H]2N1 (single isomer, unassigned) [Example 36]"
2,466 nM,"O=C1CO[C@H]2CCN(C(=O)N3CC4(CC(Oc5ccc(F)cc5Cl)C4)C3)C[C@H]2N1 (stereo in doubt) [Example 41, (4aR,8aS)-6-(6-(2-Chloro-4-fluorophenoxy)-2-azaspiro[3.3]heptane-2-carbonyl)hexahydro-2H-pyrido[4,3-b][1,4]oxazin-3(4H)-one]"
3,4.5 nM,"O=C1CO[C@H]2CCN(C(=O)N3CC4(CC(Oc5ccc(F)cc5Cl)C4)C3)C[C@H]2N1 [Example 1, (4aR,8aS)-6-(6-(2-Chloro-4-fluorophenoxy)-2-azaspiro[3.3]heptane-2-carbonyl)hexahydro-2H-pyrido[4,3-b][1,4]oxazin-3(4H)-one]"
4,5 nM,"O=C1CO[C@H]2CCN(C(=O)N3CC4(CC(Oc5ccc(C(F)(F)F)cc5)C4)C3)C[C@H]2N1 [Example 2, (4aR,8aS)-6-(6-(4-(Trifluoromethyl)phenoxy)-2-azaspiro[3.3]heptane-2-carbonyl)hexahydro-2H-pyrido[4,3-b][1,4]oxazin-3(4H)-one]"
5,2.3 nM,"O=C1CO[C@H]2CCN(C(=O)N3CC4(CC(Oc5ccc(C(F)(F)F)cc5F)C4)C3)C[C@H]2N1 [Example 3, (4aR,8aS)-6-(6-(2-Fluoro-4-(trifluoromethyl)phenoxy)-2-azaspiro[3.3]heptane-2-carbonyl)hexahydro-2H-pyrido[4,3-b][1,4]oxazin-3(4H)-one]"
6,3 nM,"O=C1CO[C@H]2CCN(C(=O)N3CC4(CC(Oc5ccc(OC(F)(F)F)cc5F)C4)C3)C[C@H]2N1 [Example 4, (4aR,8aS)-6-(6-(2-Fluoro-4-(trifluoromethoxy)phenoxy)-2-azaspiro[3.3]heptane-2-carbonyl)hexahydro-2H-pyrido[4,3-b][1,4]oxazin-3(4H)-one]"
7,0.6 nM,"O=C1CO[C@H]2CCN(C(=O)N3CC4(CC(Oc5ccc(OC(F)(F)F)cc5Cl)C4)C3)C[C@H]2N1 [Example 5, (4aR,8aS)-6-(6-(2-Chloro-4-(trifluoromethoxy)phenoxy)-2-azaspiro[3.3]heptane-2-carbonyl)hexahydro-2H-pyrido[4,3-b][1,4]oxazin-3(4H)-one]"
8,2.8 nM,"COc1ccc(C(F)(F)F)cc1OC1CC2(C1)CN(C(=O)N1CC[C@@H]3OCC(=O)N[C@@H]3C1)C2 [Example 6, (4aR,8aS)-6-(6-(2-Methoxy-5-(trifluoromethyl)phenoxy)-2-azaspiro[3.3]heptane-2-carbonyl)hexahydro-2H-pyrido[4,3-b][1,4]oxazin-3(4H)-one]"
9,8.5 nM,"O=C1CO[C@H]2CCN(C(=O)N3CC4(CC(Oc5ccc(Cl)cc5C(F)(F)F)C4)C3)C[C@H]2N1 [Example 7, (4aR,8aS)-6-(6-(4-Chloro-2-(trifluoromethyl)phenoxy)-2-azaspiro[3.3]heptane-2-carbonyl)hexahydro-2H-pyrido[4,3-b][1,4]oxazin-3(4H)-one]"
10,10.7 nM,"O=C1CO[C@H]2CCN(C(=O)N3CC4(CC(Oc5ccc(F)cc5F)C4)C3)C[C@H]2N1 [Example 8, (4aR,8aS)-6-(6-(2,4-Difluorophenoxy)-2-azaspiro[3.3]heptane-2-carbonyl)hexahydro-2H-pyrido[4,3-b][1,4]oxazin-3(4H)-one]"
11,12.5 nM,"O=C1CO[C@H]2CCN(C(=O)N3CC4(CC(Oc5cc(F)cc(C(F)(F)F)c5)C4)C3)C[C@H]2N1 [Example 9, (4aR,8aS)-6-(6-(3-Fluoro-5-(trifluoromethyl)phenoxy)-2-azaspiro[3.3]heptane-2-carbonyl)hexahydro-2H-pyrido[4,3-b][1,4]oxazin-3(4H)-one]"
12,0.8 nM,"O=C1CO[C@H]2CCN(C(=O)N3CCC4(CC3)CC(Oc3ccc(C(F)(F)F)cc3F)C4)C[C@H]2N1 [Example 10, (4aR,8aS)-6-(2-(2-Fluoro-4-(trifluoromethyl)phenoxy)-7-azaspiro[3.5]nonane-7-carbonyl)hexahydro-2H-pyrido[4,3-b][1,4]oxazin-3(4)-one]"
13,19.8 nM,"O=C1CO[C@H]2CCN(C(=O)N3CC4(CN(Cc5ccc(F)cc5Cl)C4)C3)C[C@H]2N1 [Example 11, (4aR,8aS)-6-(6-(2-Chloro-4-fluorobenzyl)-2,6-diazaspiro[3.3]heptane-2-carbonyl)hexahydro-2H-pyrido[4,3-b][1,4]oxazin-3(4H)-one]"
